Measurements published in US8895568B2, “Compositions comprising substituted pteridines as agrochemicals” (Dow AgroSciences LLC, priority 2009, dated 2014).
Read-outs that look alike come from different tables or passages of the source.

Tests used:
Format in all cases: in vivo
Colletotricum lagenarium = assay: Cucumber Anthracnose (COLLLA), foliar spray, percent disease control
[1] = system: Pseudoperonospora cubensis; assay: Cucumber Downy Mildew (PSPECU), foliar spray, percent disease control; conditions: read-out: PSPECU percent control
Cochliobolus sativus = assay: Spot Blotch of Wheat (COCHSA), foliar spray, percent disease control
[2] = system: DROSME, AEDSAE, LAPHEG, or HELIVI; assay: Insecticidal activity, active if any of DROSME, AEDSAE, LAPHEG or HELIVI was controlled at 80% or more; conditions: read-out: >80% mortality on any insect species @ 4000 ppm
[3] = Bipolaris sorokiniana, foliar; read-out: COCHSA percent control
[4] = Bipolaris sorokiniana; foliar spray; read-out: COCHSA percent control

| Compound | pest or weed control at 200 µg/mL (Colletotricum lagenarium; foliar) [%] | pest or weed control at 200 µg/mL ([1]; foliar) [%] | pest or weed control at 200 µg/mL (Cochliobolus sativus; Bipolaris sorokiniana, foliar, read-out: COCHSA percent control) [%] | pest or weed control at 4000 ppm [2] [%] | pest or weed control at 200 µg/mL (Cochliobolus sativus; [3]) [%] | pest or weed control at 200 µg/mL (Colletotricum lagenarium; foliar spray) [%] | pest or weed control at 200 µg/mL ([1]; foliar spray) [%] | pest or weed control at 200 µg/mL (Cochliobolus sativus; [4]) [%] |
| --- | --- | --- | --- | --- | --- | --- | --- | --- |
| c1ccc(-c2ccc(CCNc3ncnc4nccnc34)cc2)cc1 [Compound 125] | 50 to 79 | 80 to 100 | 0 to 49 | > 80 |  |  |  |  |
| Fc1cccc(Oc2ccc(CCNc3ncnc4nccnc34)cc2)n1 [Compound 7, {2-[4-(6-Fluoropyridin-2-yloxy)-phenyl]-ethyl}-pteridin-4-ylamine] | 0 to 49 | 80 to 100 |  | > 80 | 0 to 49 |  |  |  |
| COCCOc1cc(C(F)(F)F)cc(Oc2ccc(CCNc3ncnc4nccnc34)cc2)n1 [Compound 91, (2-{4-[6-(2-Methoxyethoxy)-4-trifluoromethyl-pyridin-2-yloxy]-phenyl}-ethyl)-pteridin-4-yl-amine] | 0 to 49 | 80 to 100 |  | > 80 | 0 to 49 |  |  |  |
| CCOC(=O)c1ccc(Oc2ccc(CCNc3ncnc4nccnc34)cc2)nc1 [Compound 137] | 0 to 49 | 0 to 49 |  | > 80 | 0 to 49 |  |  |  |
| Fc1cc(F)c(Oc2ccc(CCNc3ncnc4nccnc34)cc2)nc1F [Compound 150] | 0 to 49 | 80 to 100 |  | > 80 | 0 to 49 |  |  |  |
| COc1ccc(CCNc2ncnc3nc(C)c(C)nc23)cc1 [Compound 131] | 0 to 49 | 80 to 100 |  | > 80 | 0 to 49 |  |  |  |
| COc1cc(CCNc2ncnc3nccnc23)ccc1Oc1ccc(C#N)cn1 [Compound 50] | 0 to 49 | 80 to 100 |  | > 80 | 0 to 49 |  |  |  |
| Cc1c(CCNc2ncnc3nccnc23)ccc(Oc2ccc(C(F)(F)F)cn2)c1C [Compound 144] | 0 to 49 | 80 to 100 |  | > 80 | 0 to 49 |  |  |  |
| FC(F)(F)c1ccncc1Oc1ccc(CCNc2ncnc3nccnc23)cc1 [Compound 111] | 50 to 79 | 80 to 100 |  | > 80 | 0 to 49 |  |  |  |
| c1cnc(Oc2ccc(CCNc3ncnc4nccnc34)cc2)nc1 [Compound 15] | 0 to 49 | 80 to 100 |  | > 80 | 0 to 49 |  |  |  |
| COc1cc(CCNc2ncnc3nccnc23)ccc1Oc1cc(C(C)C)ccn1 [Compound 204] |  |  |  | > 80 |  | 0 to 49 | 80 to 100 | 0 to 49 |
| Cc1cc(Oc2cc(C(F)(F)F)ccn2)c(C)cc1CCNc1ncnc2nccnc12 [Compound 152] | 0 to 49 | 80 to 100 |  | > 80 | 0 to 49 |  |  |  |
| Cc1nc2ncnc(NCCc3ccc(Oc4ncc(C(F)(F)F)cc4F)cc3)c2nc1C [Compound 163] | 80 to 100 | 80 to 100 |  | > 80 | 0 to 49 |  |  |  |
| COC(=O)c1cc(CCNc2ncnc3nccnc23)ccc1Oc1cc(C(F)(F)F)ccn1 [Compound 213, 5-[2-(Pteridin-4-ylamino)-ethyl]-2-(4-trifluoromethyl-pyridin-2-yloxy)-benzoic acid, methyl ester] |  |  |  | > 80 |  | 0 to 49 | 80 to 100 | 0 to 49 |
| N#Cc1ccc(Oc2ccc(CCNc3ncnc4nccnc34)cc2)nc1 [Compound 14] | 0 to 49 | 80 to 100 |  | > 80 | 0 to 49 |  |  |  |
| CCCOc1cc(CCNc2ncnc3nccnc23)ccc1Oc1cc(C(F)(F)F)ccn1 [Compound 188] | 80 to 100 | 80 to 100 |  | > 80 | 0 to 49 |  |  |  |
| Fc1cnc(Oc2ccc(CCNc3ncnc4nccnc34)cc2)c(F)c1C(F)(F)F [Compound 106] | 0 to 49 | 80 to 100 |  | > 80 | 0 to 49 |  |  |  |
| Cc1cc(CCNc2ncnc3nccnc23)ccc1Oc1ncc(C(F)(F)F)cc1F [Compound 143] | 0 to 49 | 80 to 100 |  | > 80 | 0 to 49 |  |  |  |
| CC(C)c1ccnc(Oc2ccc(CCNc3ncnc4nccnc34)cc2)c1 [Compound 203] |  |  |  | > 80 |  | 50 to 79 | 80 to 100 | 0 to 49 |
